Earlier results, collected in patent US11791016B2, “Methods and systems for computer-generated predictive application of neuroimaging and gene expression mapping data” (NEUMORA THERAPEUTICS, INC., priority 2017, dated 2023).

Experiments:
[1] = target: 5-HT2A serotonin receptor (Homo sapiens, UniProt P28223); conditions: healthy human subjects
[2] = target: T1, histamine H3 receptor (Homo sapiens, UniProt Q9Y5N1); conditions: patients with schizophrenia
T1 construct: host or cells: patients with schizophrenia, in vivo (Egan et al. 2013)

[3] = target: 5HT6 receptors (Homo sapiens, UniProt P50406)
[4] = target: muscarinic M3 (CHRM3) receptor (Homo sapiens, UniProt P20309)
Chain of muscarinic M3 (CHRM3) receptor (P20309 whole entry, species assumed): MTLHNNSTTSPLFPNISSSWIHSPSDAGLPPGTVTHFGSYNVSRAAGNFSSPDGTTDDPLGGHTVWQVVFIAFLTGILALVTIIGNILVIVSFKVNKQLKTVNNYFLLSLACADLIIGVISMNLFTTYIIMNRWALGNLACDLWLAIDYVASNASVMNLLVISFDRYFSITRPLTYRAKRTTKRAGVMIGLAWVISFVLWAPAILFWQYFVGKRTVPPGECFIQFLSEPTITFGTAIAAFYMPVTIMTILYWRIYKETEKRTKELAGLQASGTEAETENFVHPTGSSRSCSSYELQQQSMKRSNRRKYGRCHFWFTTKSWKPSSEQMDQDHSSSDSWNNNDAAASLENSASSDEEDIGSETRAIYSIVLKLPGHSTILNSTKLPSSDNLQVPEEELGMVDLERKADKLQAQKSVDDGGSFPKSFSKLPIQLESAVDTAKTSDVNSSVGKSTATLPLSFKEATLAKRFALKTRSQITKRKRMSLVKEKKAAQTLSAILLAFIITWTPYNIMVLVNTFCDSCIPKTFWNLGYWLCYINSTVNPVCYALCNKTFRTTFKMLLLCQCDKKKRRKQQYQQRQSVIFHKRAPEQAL

Chain of 5-HT2A serotonin receptor (P28223 whole entry): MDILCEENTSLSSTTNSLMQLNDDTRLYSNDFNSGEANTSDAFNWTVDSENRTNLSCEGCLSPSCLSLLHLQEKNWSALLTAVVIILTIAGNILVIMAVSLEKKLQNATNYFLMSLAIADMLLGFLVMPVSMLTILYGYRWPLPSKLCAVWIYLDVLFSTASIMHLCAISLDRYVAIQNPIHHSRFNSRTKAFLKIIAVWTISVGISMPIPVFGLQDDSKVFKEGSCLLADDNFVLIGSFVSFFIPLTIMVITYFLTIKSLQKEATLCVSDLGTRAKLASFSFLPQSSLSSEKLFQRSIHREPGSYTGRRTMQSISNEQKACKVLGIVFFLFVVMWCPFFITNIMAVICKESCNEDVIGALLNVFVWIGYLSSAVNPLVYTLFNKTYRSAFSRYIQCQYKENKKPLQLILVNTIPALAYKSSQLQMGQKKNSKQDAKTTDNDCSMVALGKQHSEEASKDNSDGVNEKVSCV
T1 sequence (Q9Y5N1 whole entry): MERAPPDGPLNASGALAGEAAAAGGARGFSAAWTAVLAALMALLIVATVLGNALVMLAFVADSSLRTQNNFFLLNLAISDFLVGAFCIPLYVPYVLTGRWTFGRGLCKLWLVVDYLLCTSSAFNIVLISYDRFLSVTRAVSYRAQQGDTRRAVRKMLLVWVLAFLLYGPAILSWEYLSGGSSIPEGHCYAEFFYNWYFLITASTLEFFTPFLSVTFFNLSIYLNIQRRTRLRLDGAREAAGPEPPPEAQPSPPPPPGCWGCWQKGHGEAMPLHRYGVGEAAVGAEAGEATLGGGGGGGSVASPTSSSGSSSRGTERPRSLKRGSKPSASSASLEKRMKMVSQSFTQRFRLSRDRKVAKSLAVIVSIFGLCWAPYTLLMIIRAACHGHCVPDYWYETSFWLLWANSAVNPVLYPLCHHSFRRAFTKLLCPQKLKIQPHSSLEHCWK
Chain of 5HT6 receptors (P50406 whole entry): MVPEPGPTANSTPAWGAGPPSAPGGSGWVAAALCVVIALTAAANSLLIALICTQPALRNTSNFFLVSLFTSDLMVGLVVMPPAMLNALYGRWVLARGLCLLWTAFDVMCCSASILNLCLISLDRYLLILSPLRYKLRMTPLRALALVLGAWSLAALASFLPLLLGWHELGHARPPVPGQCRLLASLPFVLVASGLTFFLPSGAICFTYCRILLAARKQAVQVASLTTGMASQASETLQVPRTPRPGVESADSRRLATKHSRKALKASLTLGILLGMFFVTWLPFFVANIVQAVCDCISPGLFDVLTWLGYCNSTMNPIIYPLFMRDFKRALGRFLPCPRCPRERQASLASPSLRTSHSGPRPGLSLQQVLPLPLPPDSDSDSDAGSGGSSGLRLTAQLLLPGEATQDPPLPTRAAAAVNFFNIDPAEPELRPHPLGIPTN

## O=C(c1ccc(F)cc1)C1CCN(CCn2c(=O)[nH]c3ccccc3c2=O)CC1 [ketanserin]
[1]; pre-administration before LSD
  effect on LSD-induced neural change (GBC): blocked
  effect on behavioral effects of LSD: blocked

## Cc1nc2cccc(C(F)(F)F)c2c(=O)n1-c1ccc(OCCCN2CCCC2)cc1 [MK-0249]
[2]
  improvement of cognitive deficits: failed to improve cognitive deficits

## CCN(CC)C(=O)[C@@H]1C=C2c3cccc4[nH]cc(c34)C[C@H]2N(C)C1 [LSD, lysergic acid diethylamide]
[1]; acute administration, fMRI-derived cortical map
  change in mean functional connectivity (Global Brain Connectivity, GBC): large increase in occipital visual cortex

## O=C1Nc2ccc(Cl)cc2[C@@](C#CC2CC2)(C(F)(F)F)O1 [efavirenz]
[3]
  mode of action at 5HT6 receptors: inverse agonist activity
[4]
  mode of action at muscarinic M3 (CHRM3) receptor: antagonist activity
